Data from ChEMBL document CHEMBL1806472, “Nobiletin metabolites: synthesis and inhibitory activity against matrix metalloproteinase-9 production” (Bioorg Med Chem Lett, 2011).

Key:
[1] = Inhibition of TNF-alpha-induced proMMP9 production in human SRA 01/04 cells after 24 hrs by SDS-PAGE analysis; assay type: functional, cell-based
[2] = Inhibition of PMA-induced proMMP9 production in human SRA 01/04 cells after 24 hrs by SDS-PAGE analysis; assay type: functional, cell-based

Row | SMILES | IC50 [1] [µM] | IC50 [2] [µM]
1 | COc1cc(-c2cc(=O)c3c(OC)c(OC)c(OC)c(OC)c3o2)ccc1O | 5.5 | 3.7
2 | COc1ccc(-c2cc(=O)c3c(OC)c(OC)c(OC)c(OC)c3o2)cc1O | 16.4 | 16.9
3 | COc1c(OC)c(OC)c2c(=O)cc(-c3ccc(O)c(O)c3)oc2c1OC | 10.8 | 12.3
4 | COc1ccc(-c2cc(=O)c3c(OC)c(OC)c(OC)c(OC)c3o2)cc1OC [NOBILETIN] | 17 | 20.9
